Assay [1] has as its target Tyrosine-protein kinase Blk (Homo sapiens) (UniProt P51451). Put plainly: Selectivity interaction (Upstate Kinase Profiler service (Millipore)) EUB0000056c BLK. As to conditions: at 1 µM.
Assay [2] concerns the target CDK6/cyclin D2 (Homo sapiens) (UniProt Q00534+P30279). Put plainly: Selectivity interaction (Millipore kinase profiler) EUB0000124b CDK6. The assay is classed as protein-complex assay. As to conditions: at 10 µM.
The target in assay [3] is T1, Serine/threonine-protein kinase DCLK3 (Homo sapiens) (UniProt Q9C098).
T1 sequence (whole entry): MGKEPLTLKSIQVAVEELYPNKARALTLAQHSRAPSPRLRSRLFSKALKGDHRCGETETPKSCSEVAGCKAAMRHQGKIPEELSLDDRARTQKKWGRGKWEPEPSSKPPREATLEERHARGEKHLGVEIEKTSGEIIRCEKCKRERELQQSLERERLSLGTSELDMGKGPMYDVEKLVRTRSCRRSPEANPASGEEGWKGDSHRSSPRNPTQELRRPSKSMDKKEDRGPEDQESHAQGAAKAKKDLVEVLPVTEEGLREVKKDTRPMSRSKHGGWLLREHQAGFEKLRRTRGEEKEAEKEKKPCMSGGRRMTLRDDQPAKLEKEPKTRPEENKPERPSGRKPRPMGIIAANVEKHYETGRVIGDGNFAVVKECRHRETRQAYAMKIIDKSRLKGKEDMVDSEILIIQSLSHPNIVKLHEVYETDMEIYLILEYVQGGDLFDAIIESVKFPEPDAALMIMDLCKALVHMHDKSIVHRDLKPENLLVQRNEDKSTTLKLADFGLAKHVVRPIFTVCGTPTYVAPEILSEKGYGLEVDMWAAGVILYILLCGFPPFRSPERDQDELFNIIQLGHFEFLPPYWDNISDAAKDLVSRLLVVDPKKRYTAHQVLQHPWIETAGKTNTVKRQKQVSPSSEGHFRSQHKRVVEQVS
Description: Selectivity interaction (KinomeScan (DiscoverX)) EUB0000092b DCLK3. As to conditions: at 10 µM.

In assay [4] the target is T2, Serine/threonine-protein kinase DCLK2 (Homo sapiens) (UniProt Q8N568).
T2 sequence (whole entry): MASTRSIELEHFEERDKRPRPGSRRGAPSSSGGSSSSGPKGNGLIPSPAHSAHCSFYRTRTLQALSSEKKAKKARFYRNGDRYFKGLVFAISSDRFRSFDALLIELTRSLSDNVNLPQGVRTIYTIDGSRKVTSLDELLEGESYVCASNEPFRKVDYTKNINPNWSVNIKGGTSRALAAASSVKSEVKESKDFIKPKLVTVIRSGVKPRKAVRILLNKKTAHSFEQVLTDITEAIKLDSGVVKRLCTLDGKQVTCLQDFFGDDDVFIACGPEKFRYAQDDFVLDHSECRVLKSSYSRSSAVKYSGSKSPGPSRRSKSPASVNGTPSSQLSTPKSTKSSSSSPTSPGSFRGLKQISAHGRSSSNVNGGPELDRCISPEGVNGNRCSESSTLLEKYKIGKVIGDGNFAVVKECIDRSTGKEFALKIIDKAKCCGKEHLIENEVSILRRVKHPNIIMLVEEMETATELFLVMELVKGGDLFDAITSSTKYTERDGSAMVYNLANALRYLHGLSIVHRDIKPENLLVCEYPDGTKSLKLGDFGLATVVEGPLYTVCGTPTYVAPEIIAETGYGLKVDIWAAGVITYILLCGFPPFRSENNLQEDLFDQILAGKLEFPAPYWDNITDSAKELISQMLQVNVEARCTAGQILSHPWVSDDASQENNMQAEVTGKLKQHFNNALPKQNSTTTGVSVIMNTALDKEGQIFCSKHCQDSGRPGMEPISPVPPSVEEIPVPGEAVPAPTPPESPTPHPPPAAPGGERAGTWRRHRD
Description: Selectivity interaction (Kinase screening (Nanosyn)) EUB0000604a DCLK2.

Assay [5] concerns the target Serine/threonine-protein kinase 32C (Homo sapiens) (UniProt Q86UX6). Description: Selectivity interaction (KinomeScan (DiscoverX)) EUB0000045b STK32C.
The subject of assay [6] is Leucine-rich repeat serine/threonine-protein kinase 2 (Homo sapiens), Q5S007 [G2019S]. Description: (§1) Selectivity interaction (KinomeScan (DiscoverX)) EUB0000666a LRRK2. As to conditions: at 10 µM.
The target of assay [7] is Leucine-rich repeat serine/threonine-protein kinase 2 (Homo sapiens, UniProt Q5S007). Described as §1. As to conditions: at 10 µM.
Leucine-rich repeat serine/threonine-protein kinase 2, sequence (Q5S007 whole entry): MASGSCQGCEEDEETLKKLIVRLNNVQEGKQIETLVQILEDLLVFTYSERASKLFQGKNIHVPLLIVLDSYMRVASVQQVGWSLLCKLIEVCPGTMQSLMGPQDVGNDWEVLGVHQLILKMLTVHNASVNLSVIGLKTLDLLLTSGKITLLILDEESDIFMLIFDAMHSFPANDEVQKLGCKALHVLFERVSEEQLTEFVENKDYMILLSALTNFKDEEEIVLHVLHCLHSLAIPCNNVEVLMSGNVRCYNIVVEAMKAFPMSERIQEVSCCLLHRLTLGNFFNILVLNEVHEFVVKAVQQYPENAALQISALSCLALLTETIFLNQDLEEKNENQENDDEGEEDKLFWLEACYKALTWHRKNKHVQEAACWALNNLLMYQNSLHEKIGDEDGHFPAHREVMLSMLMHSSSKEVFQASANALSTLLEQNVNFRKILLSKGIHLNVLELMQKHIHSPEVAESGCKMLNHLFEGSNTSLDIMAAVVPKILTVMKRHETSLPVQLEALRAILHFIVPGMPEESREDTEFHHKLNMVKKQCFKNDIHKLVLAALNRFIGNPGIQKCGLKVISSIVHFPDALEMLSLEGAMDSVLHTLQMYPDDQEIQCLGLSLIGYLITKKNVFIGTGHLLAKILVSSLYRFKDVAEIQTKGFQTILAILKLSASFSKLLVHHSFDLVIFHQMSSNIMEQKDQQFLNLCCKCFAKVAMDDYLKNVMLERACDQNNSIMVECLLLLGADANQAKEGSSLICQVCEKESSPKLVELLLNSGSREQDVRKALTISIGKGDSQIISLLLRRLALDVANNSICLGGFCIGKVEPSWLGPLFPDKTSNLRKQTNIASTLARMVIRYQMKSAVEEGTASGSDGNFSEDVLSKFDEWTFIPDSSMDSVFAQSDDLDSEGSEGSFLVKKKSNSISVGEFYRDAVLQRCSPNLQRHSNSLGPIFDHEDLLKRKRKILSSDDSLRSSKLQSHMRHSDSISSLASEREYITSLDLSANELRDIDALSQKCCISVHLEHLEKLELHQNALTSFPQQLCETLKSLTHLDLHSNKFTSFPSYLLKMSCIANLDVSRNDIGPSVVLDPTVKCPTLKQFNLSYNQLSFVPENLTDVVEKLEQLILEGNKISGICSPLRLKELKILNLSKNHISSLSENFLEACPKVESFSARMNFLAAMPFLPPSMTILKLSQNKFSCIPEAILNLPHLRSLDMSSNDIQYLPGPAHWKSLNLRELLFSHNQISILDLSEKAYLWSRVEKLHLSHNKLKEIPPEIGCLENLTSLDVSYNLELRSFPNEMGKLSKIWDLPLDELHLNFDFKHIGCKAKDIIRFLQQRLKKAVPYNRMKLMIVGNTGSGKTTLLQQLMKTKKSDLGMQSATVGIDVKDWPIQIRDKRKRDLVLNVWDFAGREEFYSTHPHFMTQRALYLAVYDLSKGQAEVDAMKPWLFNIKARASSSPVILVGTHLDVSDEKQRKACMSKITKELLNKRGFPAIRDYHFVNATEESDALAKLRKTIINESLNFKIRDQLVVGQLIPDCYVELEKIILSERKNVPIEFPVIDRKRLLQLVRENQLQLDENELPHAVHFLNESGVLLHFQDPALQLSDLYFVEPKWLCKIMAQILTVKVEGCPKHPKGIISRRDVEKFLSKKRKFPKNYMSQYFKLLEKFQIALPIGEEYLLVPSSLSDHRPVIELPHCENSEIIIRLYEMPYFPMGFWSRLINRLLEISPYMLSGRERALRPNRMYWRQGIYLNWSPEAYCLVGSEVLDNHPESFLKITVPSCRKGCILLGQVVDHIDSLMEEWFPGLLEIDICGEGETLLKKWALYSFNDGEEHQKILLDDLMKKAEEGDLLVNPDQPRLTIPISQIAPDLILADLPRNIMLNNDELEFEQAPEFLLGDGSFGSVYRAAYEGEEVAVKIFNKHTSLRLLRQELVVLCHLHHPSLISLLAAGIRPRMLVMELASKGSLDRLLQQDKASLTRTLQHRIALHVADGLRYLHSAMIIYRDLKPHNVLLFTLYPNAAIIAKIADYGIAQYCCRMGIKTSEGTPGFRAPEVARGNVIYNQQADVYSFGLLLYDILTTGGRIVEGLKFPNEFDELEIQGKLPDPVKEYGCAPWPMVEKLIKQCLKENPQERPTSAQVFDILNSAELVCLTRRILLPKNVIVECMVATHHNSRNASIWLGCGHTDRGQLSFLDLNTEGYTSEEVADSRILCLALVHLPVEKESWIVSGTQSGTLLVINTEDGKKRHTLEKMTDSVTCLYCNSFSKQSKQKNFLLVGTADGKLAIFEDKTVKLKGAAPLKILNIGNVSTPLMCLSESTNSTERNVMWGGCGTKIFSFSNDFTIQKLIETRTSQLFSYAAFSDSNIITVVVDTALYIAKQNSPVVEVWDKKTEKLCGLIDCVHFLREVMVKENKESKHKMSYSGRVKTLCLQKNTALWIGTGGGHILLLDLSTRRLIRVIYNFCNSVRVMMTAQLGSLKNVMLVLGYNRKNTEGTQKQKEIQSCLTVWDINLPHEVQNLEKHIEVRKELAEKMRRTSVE
Assay [8] is described as follows: Selectivity interaction (KinomeScan (DiscoverX)) EUB0000666a PKNB. As to conditions: at 10 µM.
The target of assay [9] is T3, Megakaryocyte-associated tyrosine-protein kinase (Homo sapiens) (UniProt P42679).
T3 sequence (whole entry): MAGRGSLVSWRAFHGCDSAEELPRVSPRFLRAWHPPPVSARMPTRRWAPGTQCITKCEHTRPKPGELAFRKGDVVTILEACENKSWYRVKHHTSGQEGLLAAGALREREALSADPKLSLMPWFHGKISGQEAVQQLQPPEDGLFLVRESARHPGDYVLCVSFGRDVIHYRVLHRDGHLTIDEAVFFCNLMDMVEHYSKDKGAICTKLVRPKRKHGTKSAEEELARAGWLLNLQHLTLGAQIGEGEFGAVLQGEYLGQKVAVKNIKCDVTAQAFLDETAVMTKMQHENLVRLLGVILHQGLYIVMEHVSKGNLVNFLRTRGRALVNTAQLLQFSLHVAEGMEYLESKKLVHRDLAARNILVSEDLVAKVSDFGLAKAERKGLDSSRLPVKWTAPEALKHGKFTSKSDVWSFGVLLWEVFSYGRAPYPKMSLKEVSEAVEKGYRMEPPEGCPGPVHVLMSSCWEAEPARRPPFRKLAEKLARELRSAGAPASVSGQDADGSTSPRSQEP
Put plainly: Selectivity interaction (Kinase panel (Invitrogen)) EUB0000639a MATK. As to conditions: at 200 nM.

Assay [10] deals with T4, Dual specificity mitogen-activated protein kinase kinase 7 (Homo sapiens) (UniProt O14733).
T4 sequence (whole entry): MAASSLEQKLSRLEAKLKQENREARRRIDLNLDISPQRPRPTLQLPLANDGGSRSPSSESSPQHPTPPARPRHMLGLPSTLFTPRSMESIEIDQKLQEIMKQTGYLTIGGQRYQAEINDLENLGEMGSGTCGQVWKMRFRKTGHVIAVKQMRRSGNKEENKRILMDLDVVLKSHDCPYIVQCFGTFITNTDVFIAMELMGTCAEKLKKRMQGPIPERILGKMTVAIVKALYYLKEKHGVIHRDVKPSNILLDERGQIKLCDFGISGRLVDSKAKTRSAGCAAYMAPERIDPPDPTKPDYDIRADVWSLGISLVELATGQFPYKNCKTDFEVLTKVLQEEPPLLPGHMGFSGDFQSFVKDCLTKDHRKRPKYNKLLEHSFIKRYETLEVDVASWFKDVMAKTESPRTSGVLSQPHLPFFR
Put plainly: Selectivity interaction (KinomeScan (DiscoverX)) EUB0000595a MAP2K7. As to conditions: at 10 µM.

Assay [11] deals with Tyrosine-protein kinase Lck (Homo sapiens, UniProt P06239). Put plainly: Selectivity interaction (Kinase panel (KiNativ target engagement assay in Jurkat cells)) EUB0001635a LCK. Format: cell-based. As to conditions: Selectivity number of off-targets 0.0, Selectivity number of targets 233.0, Source Knowledge https://www.sciencedirect.com/science/article/pii/S2451945619300674?via%3Dihub, at 1 µM.
Tyrosine-protein kinase Lck, sequence (P06239 2-509 limits assumed): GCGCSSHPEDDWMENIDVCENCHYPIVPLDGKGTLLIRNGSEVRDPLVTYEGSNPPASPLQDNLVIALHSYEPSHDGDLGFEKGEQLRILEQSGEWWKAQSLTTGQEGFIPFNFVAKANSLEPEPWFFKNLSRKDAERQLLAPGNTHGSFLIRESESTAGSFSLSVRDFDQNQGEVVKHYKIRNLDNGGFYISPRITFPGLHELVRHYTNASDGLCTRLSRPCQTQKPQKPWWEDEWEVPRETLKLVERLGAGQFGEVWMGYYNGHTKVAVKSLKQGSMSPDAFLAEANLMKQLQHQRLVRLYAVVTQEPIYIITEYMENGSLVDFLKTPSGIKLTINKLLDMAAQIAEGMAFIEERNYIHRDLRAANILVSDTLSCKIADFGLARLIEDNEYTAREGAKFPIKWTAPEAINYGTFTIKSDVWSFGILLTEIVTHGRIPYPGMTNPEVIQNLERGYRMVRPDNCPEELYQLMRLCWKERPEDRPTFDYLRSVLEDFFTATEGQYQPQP

Structures are written as SMILES.

Serine/threonine-protein kinase 32C (Homo sapiens), sequence (Q86UX6 whole entry): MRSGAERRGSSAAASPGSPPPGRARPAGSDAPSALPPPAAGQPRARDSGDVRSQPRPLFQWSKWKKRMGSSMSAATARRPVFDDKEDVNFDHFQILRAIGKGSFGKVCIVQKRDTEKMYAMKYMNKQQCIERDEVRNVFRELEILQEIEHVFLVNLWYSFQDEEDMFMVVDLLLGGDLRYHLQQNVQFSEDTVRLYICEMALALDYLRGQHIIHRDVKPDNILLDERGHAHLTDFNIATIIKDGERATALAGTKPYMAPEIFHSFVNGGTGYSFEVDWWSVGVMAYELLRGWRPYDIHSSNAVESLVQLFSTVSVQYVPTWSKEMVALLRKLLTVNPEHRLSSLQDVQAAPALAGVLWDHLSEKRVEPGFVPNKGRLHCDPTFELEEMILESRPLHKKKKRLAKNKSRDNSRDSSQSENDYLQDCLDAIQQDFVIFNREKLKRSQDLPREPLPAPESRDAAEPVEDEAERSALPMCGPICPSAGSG
Leucine-rich repeat serine/threonine-protein kinase 2 (Homo sapiens), Q5S007 [G2019S], sequence (Q5S007 whole entry G2019S): as the sequence (Q5S007 whole entry) above, with G2019S counted along it
Tyrosine-protein kinase Blk (Homo sapiens), sequence (P51451 2-505 limits assumed): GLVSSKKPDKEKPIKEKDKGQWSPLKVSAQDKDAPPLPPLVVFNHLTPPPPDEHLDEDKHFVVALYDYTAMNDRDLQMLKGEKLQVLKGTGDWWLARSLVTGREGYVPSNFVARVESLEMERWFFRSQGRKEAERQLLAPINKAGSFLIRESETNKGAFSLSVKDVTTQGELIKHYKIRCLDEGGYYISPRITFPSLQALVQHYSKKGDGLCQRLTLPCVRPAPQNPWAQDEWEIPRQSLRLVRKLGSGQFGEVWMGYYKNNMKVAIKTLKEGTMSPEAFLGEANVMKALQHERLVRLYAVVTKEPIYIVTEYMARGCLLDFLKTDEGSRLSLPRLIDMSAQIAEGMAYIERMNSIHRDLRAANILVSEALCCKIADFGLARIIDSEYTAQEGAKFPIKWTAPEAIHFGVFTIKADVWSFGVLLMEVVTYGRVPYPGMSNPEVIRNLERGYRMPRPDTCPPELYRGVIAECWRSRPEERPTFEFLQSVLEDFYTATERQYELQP

With `Cc1ccc(-c2ccc3c(ccc4sc5c(c43)NC[C@@H](C)NC5=O)n2)cn1`, the % of inhibition in [1] was found to be 14%.
For the molecule `CC(=O)Nc1cccc(-n2c(=O)n(C3CC3)c(=O)c3c(Nc4ccc(I)cc4F)n(C)c(=O)c(C)c32)c1`, the % of control in assay [2] was determined as 107%.
With `CCC(=O)N1CCN(c2ccc(-n3c(=O)ccc4cnc5ccc(-c6cnc7ccccc7c6)cc5c43)cc2C(F)(F)F)CC1`, the % of control in [3] was determined as 97%.
`Cc1cnc(Nc2ccc(F)cc2Cl)nc1-c1c[nH]c(C(=O)N[C@H](CO)c2cccc(Cl)c2)c1`: the % of inhibition in assay [4] was 1%.
For `C=CC(=O)Nc1cc(-n2c(=O)ccc3cnc4ccc(-c5ccc(NS(C)(=O)=O)cc5)cc4c32)ccc1C`, the % of control in assay [5] (at 1 µM) and in assay [5] (at 10 µM) was 100% in each case.
In the case of `O=C(NOC[C@H](O)CO)c1ccc(F)c(F)c1Nc1ccc(I)cc1F`, the % of control in assay [6] was found to be 100%; in assay [7], 86%; in [8] it was 91%.
As to `CC[C@@H]1[C@H](F)C(=O)N[C@@H]1COc1nccc2cc(C(N)=O)c(OC)cc12` [ZIMLOVISERTIB], the % of inhibition in assay [9] came to 1.51%.
`COCC(=O)NC/C=C/c1ccc2ncnc(Nc3ccc(Oc4ccc(C)nc4)c(C)c3)c2c1` [CP-724714]: the % of control in [10] stood at 100%.
In the case of `C=CC(=O)Nc1ccc(C(=O)Nc2[nH]nc3c2CN(C(=O)N[C@H](CN(C)C)c2ccccc2)C3(C)C)cc1`, the % of engagement in assay [11] was -3.6%.
